Test system: bacteria
Experiment: MIC, broth dilution method (antibacterial activity)
Type: cell-based
Conditions: optical density of organisms with and without test compound, bacterial species not stated
Protocol: Antibacterial activity can be determined by several standard methods well known by those skilled in the art, including disc diffusions methods, broth dilution minimal inhibitory concentration (MIC) methods, etc., including the detailed method outlined below.
MIC, Broth Dilution Method
Cultures of bacteria are initially brought up from the freezer stocks onto chocolate agar plates by streaking a loop-full, then incubated for 18 hours at 35-37° C. in a 5% CO2 incubator.
Five to 10 colonies are picked from the chocolate agar plate for subculture to Brain-Heart Infusion (BHI) broth or Mueller Hinton broth or BHI containing 4% serum and incubated as described.
Evaluate the optical density of the organisms with and without the test compound. The optical density of the organisms in the presence of an active compound will be less than the optical density of the same organism untreated. The activity of the compounds is described as either negative or the lowest concentration inhibiting growth. The results are depicted in Table III, where +/− represents the least activity and ++++ represents the greatest activity.

Structure (SMILES) | Antibacterial Activity
CC(C)(C)[Si](C)(C)Oc1ccc2c(c1)NC(=O)CCC2 [Example 36, 8-(tert-butyldimethylsilyloxy)-2,3,4,5-tetrahydro-1H-1-benzazepine-2-one] | ++++
COc1cc2c(cc1N1CCN(C(=O)OCc3ccccc3)CC1)CCC(C(=O)OC(C)(C)C)C(=O)N2Cc1cccc(F)c1 (racemic) [Example 31, 7-[(4-Benzyloxycarbonyl)piperazin-1-yl]-3(R,S)-tert-butoxycarbonyl-1-(3-fluorobenzyl)-8-methoxy-2,3,4,5-tetrahydro-1H-1-benzazepine-2-one] | ++++
CCN1C(=O)CCCc2cc(N3CCN(C)CC3)c(OC)cc21 [Example 10] | +/−

Test system: not given
Experiment: not given
Conditions: not given

melting point | Structure (SMILES)
89 to 91 °C | CCOC(=O)C1CCc2ccc(OC)cc2NC1=O (racemic) [Example 3, 3(R,S)-Ethoxycarbonyl-8-methoxy-2,3,4,5-tetrahydro-1H-1-benzazepine-2-one]
133 to 135 °C | CCN1C(=O)CCCc2cc(Br)c(OC)cc21 [Example 9, 7-Bromo-1-ethyl-8-methoxy-2,3,4,5-tetrahydro-1H-1-benzazepine-2-one]
188 to 189 °C (dec.) | CCN1C(=O)C(C(=O)O)CCc2cc(Br)c(OC)cc21 (racemic) [Example 17, 7-Bromo-3(R,S)-carboxyl-1-ethyl-8-methoxy-2,3,4,5tetrahydro-1H-1-benzazepine-2-one]
180 to 182 °C | COc1cc2c(cc1Br)CCCC(=O)N2 [Example 24, 7-Bromo-8-methoxy-2,3,4,5-tetrahydro-1H-1-benzazepine-2-one]
173 to 176 °C (dec.) | CCN1C(=O)C(C(=O)O)CCc2cc(N3CCNCC3)c(OC)cc21.Cl (racemic) [Example 15, 3(R,S)-Carboxyl-1-ethyl-8-methoxy-7-(piperazin-1-yl)-2,3,4,5-tetrahydro-1H-1-benzazepine-2-one Hydrochloride]
71 to 73 °C (dec.) | CCN1C(=O)C(Br)(C(=O)OC)CCc2cc(Br)c(OC)cc21 (racemic) [Example 27, 3,7-Dibromo-1-ethyl-3(R,S)-methoxycarbonyl-8-methoxy-2,3,4,5-tetrahydro-1H-1-benzazepine-2-one]
105 to 106 °C | COc1ccc2c(c1)NC(=O)CCC2 [Example 2, 8-Methoxy-2,3,4,5-tetrahydro-1H-1-benzazepine-2-one]
226 to 227 °C | O=C1CCCc2ccc(O)cc2N1 [Example 33, 8-Hydroxy-2,3,4,5-tetrahydro-1H-1-benzazepine-2-one]
120 to 121 °C | CCN1C(=O)C(C(=O)O)CCc2ccc(OC)cc21 (racemic) [Example 5, 3(R,S)-Carboxyl-1-ethyl-8-methoxy-2,3,4,5-tetrahydro-1H-1-benzazepine-2-one]

Structure (SMILES) | melting point
CCN1C(=O)C(C(=O)OC(C)(C)C)CCc2cc(Br)c(OC)cc21 (racemic) [Example 13, 7-Bromo-3(R,S)-tert-butoxycarbonyl-1-ethyl-8-methoxy-2,3,4,5-tetrahydro-1H-1-benzazepine-2-one] | 131 to 132 °C
COc1ccc2c(c1)N(C(=O)OC(C)(C)C)C(=O)C(C(=O)OC(C)(C)C)CC2 (racemic) [Example 23, 1-tert-Butoxycarbonyl-3(R,S)-tert-butoxycarbonyl-8-methoxy-2,3,4,5-tetrahydro-1H-1-benzazepine-2-one] | 91 to 92 °C
CCN1C(=O)C(C(=O)OC(C)(C)C)CCc2ccc(OC)cc21 (racemic) [Example 12, 3(R,S)-tert-Butoxycarbonyl-1-ethyl-8-methoxy-2,3,4,5-tetrahydro-1H-1-benzazepine-2-one] | 132 to 133 °C
CCN1C(=O)C(C(=O)OC(C)(C)C)CCc2cc(N3CCNCC3)c(OC)cc21 (racemic) [Example 18, 3(R,S)-tert-Butoxycarbonyl-1-ethyl-8-methoxy-7-(piperazin-1-yl)-2,3,4,5-tetrahydro-1H-1-benzazepine-2-one] | 165 °C (dec.)
COc1ccc2c(c1)NC(=O)C(C(=O)OC(C)(C)C)CC2 (racemic) [Example 11, 3(R,S)-tert-Butoxycarbonyl-8-methoxy-2,3,4,5-tetrahydro-1H-1-benzazepine-2-one] | 145 to 147 °C
COc1cc2c(cc1Br)CCC(C(=O)OC(C)(C)C)C(=O)N2Cc1cccc(F)c1 (racemic) [Example 30, 7-Bromo-3(R,S)-tert-butoxycarbonyl-1-(3-fluorobenzyl)-8-methoxy-2,3,4,5-tetrahydro-1H-1-benzazepine-2-one] | 146 to 148 °C
COc1cc2c(cc1Br)CCC(C(=O)OC(C)(C)C)C(=O)N2 (racemic) [Example 32, 7-Bromo-3(R,S)-tert-butoxycarbonyl-8-methoxy-2,3,4,5-tetrahydro-1H-1-benzazepine-2-one] | 207 to 208 °C
CCN1C(=O)C(C(=O)OC(C)(C)C)C=Cc2ccc(OC)cc21 (racemic) [Example 16, 3(R,S)-tert-Butoxycarbonyl-1-ethyl-8-methoxy-2,3-dihydro-1H-1-benzazepine-2-one] | 173 to 174 °C

From patent publication US6514965B1, “Substituted 1-benzazepines and derivatives thereof” (Antex Pharma Inc., priority 1999, dated 2003)
